target: T1, TRPML1 (Homo sapiens, UniProt Q9GZU1); assay: Cellular TRPML1 assay (FLIPR, GCaMP6f calcium read-out); format: cell-based; conditions: not given
T1 construct: expressed in transfected cells; host or cells: HEK T-REx cells stably expressing GCaMP6f and TRPML1
Outline: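 HEK T-REx cells stably expressing TRPML1 and GCaMP6f, seeded 24 h before in Optimem + 0.5% FBS. After ~10 min pre-incubation at room temperature, compounds in Ca2+-free Tyrode's buffer were injected on FLIPR Tetra (final DMSO 0.5%). Calcium fluorescence kinetics followed for 300 s.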

T1 sequence (Q9GZU1 whole entry): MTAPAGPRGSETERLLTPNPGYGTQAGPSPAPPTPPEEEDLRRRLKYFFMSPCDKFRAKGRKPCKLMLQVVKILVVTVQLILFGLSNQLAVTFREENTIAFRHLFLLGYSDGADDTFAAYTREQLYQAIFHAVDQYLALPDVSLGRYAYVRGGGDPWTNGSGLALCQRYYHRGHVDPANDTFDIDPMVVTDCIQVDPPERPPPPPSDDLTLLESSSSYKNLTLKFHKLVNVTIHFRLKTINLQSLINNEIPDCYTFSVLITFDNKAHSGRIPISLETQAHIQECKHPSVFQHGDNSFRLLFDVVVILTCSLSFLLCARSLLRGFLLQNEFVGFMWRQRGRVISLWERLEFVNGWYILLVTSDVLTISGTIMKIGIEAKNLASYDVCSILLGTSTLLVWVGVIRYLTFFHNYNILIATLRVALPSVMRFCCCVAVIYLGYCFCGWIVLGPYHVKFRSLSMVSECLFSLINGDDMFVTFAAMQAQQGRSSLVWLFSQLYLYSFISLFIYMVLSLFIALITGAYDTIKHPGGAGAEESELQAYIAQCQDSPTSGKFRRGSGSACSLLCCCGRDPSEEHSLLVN

| Structure (SMILES) | EC50 |
| --- | --- |
| CCC1(OC)CN(c2nc(C(=O)Nc3cc(C)c(N4C5CCCC4CC5)c(F)c3)c(CCF)o2)C1 [Example 291, N-(4-(8-azabicyclo[3.2.1]octan-8-yl)-3-fluoro-5-methylphenyl)-2-(3-ethyl-3-methoxyazetidin-1-yl)-5-(2-fluoroethyl)oxazole-4-carboxamide] | 0.01 to 1 µM |

same assay, conditions: HEKT-REx/GCaMP6f/TRPML1 cells, FLIPR TETRA, kinetic response over 300 seconds; read-out: TRPML1 FLIPR pEC50 (converted)

| Structure (SMILES) | EC50 |
| --- | --- |
| CCc1oc(N2CCCC2)nc1C(=O)Nc1cc(F)c(O[C@@H]2C[C@@H]3C[C@@H]3C2)c(Cl)c1 [Example 222, N-(4-(cis-bicyclo[3.1.0]hexan-3-yloxy)-3-chloro-5-fluorophenyl)-5-ethyl-2-(pyrrolidin-1-yl)oxazole-4-carboxamide] | 0.01 to 1 µM |
| CCc1oc(N2CC(C)(OC)C2)nc1C(=O)Nc1cc(C)c(O[C@@H]2C[C@@H]3C[C@@H]3C2)c(F)c1 [Example 226, N-(4-(cis-bicyclo[3.1.0]hexan-3-yloxy)-3-fluoro-5-methylphenyl)-5-ethyl-2-(3-methoxy-3-methylazetidin-1-yl)oxazole-4-carboxamide] | 0.01 to 1 µM |
| CCc1oc(N2CCCOCC2)nc1C(=O)Nc1cc(F)c(O[C@@H]2C[C@@H]3C[C@@H]3C2)c(F)c1 [Example 231, N-(4-(cis-bicyclo[3.1.0]hexan-3-yloxy)-3,5-difluorophenyl)-5-ethyl-2-(1,4-oxazepan-4-yl)oxazole-4-carboxamide] | 1 to 10 µM |
| CCc1oc(-n2cccn2)nc1C(=O)Nc1cc(F)c(O[C@@H]2C[C@@H]3C[C@@H]3C2)c(F)c1 [Example 232, N-(4-(cis-bicyclo[3.1.0]hexan-3-yloxy)-3,5-difluorophenyl)-5-ethyl-2-(1H-pyrazol-1-yl)oxazole-4-carboxamide] | 1 to 10 µM |
| CCc1oc(N2CC3CCOC3C2)nc1C(=O)Nc1cc(F)c(OC2CC3C[C@H]3C2)c(F)c1 (stereo partly drawn) [Example 233, N-(4-(cis-bicyclo[3.1.0]hexan-3-yloxy)-3,5-difluorophenyl)-5-ethyl-2-(hexahydro-5H-furo[2,3-c]pyrrol-5-yl)oxazole-4-carboxamide] | 1 to 10 µM |
| CCc1oc(N2CC(CC)(OC)C2)nc1C(=O)Nc1cc(F)c(OC2CCOC2)c(F)c1 (centres unmarked) [Example 234, N-(3,5-difluoro-4-((tetrahydrofuran-3-yl)oxy)phenyl)-5-ethyl-2-(3-ethyl-3-methoxyazetidin-1-yl)oxazole-4-carboxamide] | 1 to 10 µM |
| CCc1oc(N2CC(CC)(CC)C2)nc1C(=O)Nc1cc(F)c(OC2CCCOC2)c(F)c1 (centres unmarked) [Example 236, 2-(3,3-diethylazetidin-1-yl)-N-(3,5-difluoro-4-((tetrahydro-2H-pyran-3-yl)oxy)phenyl)-5-ethyloxazole-4-carboxamide] | 0.01 to 1 µM |
| CCc1oc(N2CC3COCC3C2)nc1C(=O)Nc1cc(F)c(OC2CC3C[C@H]3C2)c(F)c1 (stereo partly drawn) [Example 237, N-(4-(cis-bicyclo[3.1.0]hexan-3-yloxy)-3,5-difluorophenyl)-5-ethyl-2-(tetrahydro-1H-furo[3,4-c]pyrrol-5(3H)-yl)oxazole-4-carboxamide] | 0.01 to 1 µM |
| CCc1oc(N2CCCCCC2)nc1C(=O)Nc1cc(F)c(O[C@@H]2C[C@@H]3C[C@@H]3C2)c(F)c1 [Example 242, 2-(azepan-1-yl)-N-(4-(cis-bicyclo[3.1.0]hexan-3-yloxy)-3,5-difluorophenyl)-5-ethyloxazole-4-carboxamide] | 0.01 to 1 µM |
| CCc1oc(N2CC(CC)(CC)C2)nc1C(=O)Nc1cc(F)c(O[C@@H]2C[C@@H]3C[C@@H]3C2)c(F)c1 [Example 243, N-(4-(cis-bicyclo[3.1.0]hexan-3-yloxy)-3,5-difluorophenyl)-2-(3,3-diethylazetidin-1-yl)-5-ethyloxazole-4-carboxamide] | 0.01 to 1 µM |
| CCc1oc(N2CC(CC)(OC)C2)nc1C(=O)Nc1ccc(O[C@@H]2C[C@@H]3C[C@@H]3C2)c(F)c1 [Example 246, N-(4-(cis-bicyclo[3.1.0]hexan-3-yloxy)-3-fluorophenyl)-5-ethyl-2-(3-ethyl-3-methoxyazetidin-1-yl)oxazole-4-carboxamide] | 0.01 to 1 µM |
| CCc1oc(N2CC(C)(OC)C2)nc1C(=O)Nc1ccc(O[C@@H]2C[C@@H]3C[C@@H]3C2)c(C)c1 [Example 248, N-(4-(cis-bicyclo[3.1.0]hexan-3-yloxy)-3-methylphenyl)-5-ethyl-2-(3-methoxy-3-methylazetidin-1-yl)oxazole-4-carboxamide] | 1 to 10 µM |
| CCc1oc(N2CC(CC)(OC)C2)nc1C(=O)Nc1ccc(O[C@@H]2C[C@@H]3C[C@@H]3C2)c(F)c1F [Example 250] | 10 to 100 µM |
| CCc1oc(N2CC(CC)(OC)C2)nc1C(=O)Nc1cc(F)c(O[C@@H]2C[C@@H]3C[C@@H]3C2)cc1F [Example 251, N-(4-(cis-bicyclo[3.1.0]hexan-3-yloxy)-2,5-difluorophenyl)-5-ethyl-2-(3-ethyl-3-methoxyazetidin-1-yl)oxazole-4-carboxamide] | 1 to 10 µM |
| CCc1oc(N2CCCC2)nc1C(=O)Nc1cc(C)c(NC2CC3CC(C3)C2)c(F)c1 (centres unmarked) [Example 252, N-(4-(bicyclo[3.1.1]heptan-3-ylamino)-3-fluoro-5-methylphenyl)-5-ethyl-2-(pyrrolidin-1-yl)oxazole-4-carboxamide] | 1 to 10 µM |
| CCc1oc(N2CC(CC)(CC)C2)nc1C(=O)Nc1cc(C)c(NC2CC3CC(C3)C2)c(F)c1 (centres unmarked) [Example 253, N-(4-(bicyclo[3.1.1]heptan-3-ylamino)-3-fluoro-5-methylphenyl)-2-(3,3-diethylazetidin-1-yl)-5-ethyloxazole-4-carboxamide] | 1 to 10 µM |
| CCc1oc(N2CC3COCC3C2)nc1C(=O)Nc1cc(F)c(N2CC3CC(C3)C2)c(F)c1 (centres unmarked) [Example 257, N-(4-(3-azabicyclo[3.1.1]heptan-3-yl)-3,5-difluorophenyl)-5-ethyl-2-(tetrahydro-1H-furo[3,4-c]pyrrol-5(3H)-yl)oxazole-4-carboxamide] | 1 to 10 µM |
| CCc1oc(N2CC(C)(OC)C2)nc1C(=O)Nc1cc(F)c(N2CC3CC(C3)C2)c(F)c1 [Example 258, N-(4-(3-azabicyclo[3.1.1]heptan-3-yl)-3,5-difluorophenyl)-5-ethyl-2-(3-methoxy-3-methylazetidin-1-yl)oxazole-4-carboxamide] | 1 to 10 µM |
| COC1(C)CN(c2nc(C(=O)Nc3cc(C)c(O[C@@H]4C[C@@H]5C[C@@H]5C4)c(O)c3)c(CC(F)(F)F)o2)C1 [Example 263, N-(4-(cis-bicyclo[3.1.0]hexan-3-yloxy)-3-hydroxy-5-methylphenyl)-2-(3-methoxy-3-methylazetidin-1-yl)-5-(2,2,2-trifluoroethyl)oxazole-4-carboxamide] | 0.01 to 1 µM |
| COC1(C)CN(c2nc(C(=O)Nc3cc(O)c(OC4CC5CC(C5)C4)c(F)c3)c(CC(F)(F)F)o2)C1 (centres unmarked) [Example 265, N-(4-(bicyclo[3.1.1]heptan-3-yloxy)-3-fluoro-5-hydroxyphenyl)-2-(3-methoxy-3-methylazetidin-1-yl)-5-(2,2,2-trifluoroethyl)oxazole-4-carboxamide] | 1 to 10 µM |
| CCC1(OC)CN(c2nc(C(=O)Nc3cc(O)c(OC4CC5CC(C5)C4)c(F)c3)c(CC(F)(F)F)o2)C1 (centres unmarked) [Example 266, N-(4-(bicyclo[3.1.1]heptan-3-yloxy)-3-fluoro-5-hydroxyphenyl)-2-(3-ethyl-3-methoxyazetidin-1-yl)-5-(2,2,2-trifluoroethyl)oxazole-4-carboxamide] | 1 to 10 µM |
| COC1(C)CN(c2nc(C(=O)Nc3cc(O)c(O[C@@H]4C[C@@H]5C[C@@H]5C4)c(F)c3)c(CC(F)(F)F)o2)C1 [Example 267, N-(4-(cis-bicyclo[3.1.0]hexan-3-yloxy)-3-fluoro-5-hydroxyphenyl)-2-(3-methoxy-3-methylazetidin-1-yl)-5-(2,2,2-trifluoroethyl)oxazole-4-carboxamide] | 1 to 10 µM |
| CCC1(OC)CN(c2nc(C(=O)Nc3cc(O)c(O[C@@H]4C[C@@H]5C[C@@H]5C4)c(F)c3)c(CC(F)(F)F)o2)C1 [Example 268, N-(4-(cis-bicyclo[3.1.0]hexan-3-yloxy)-3-fluoro-5-hydroxyphenyl)-2-(3-ethyl-3-methoxyazetidin-1-yl)-5-(2,2,2-trifluoroethyl)oxazole-4-carboxamide] | 1 to 10 µM |
| CCC1(CC)CN(c2nc(C(=O)Nc3ccc(O[C@@H]4C[C@@H]5C[C@@H]5C4)c(O)c3)c(CC(F)(F)F)o2)C1 [Example 270, N-(4-(cis-bicyclo[3.1.0]hexan-3-yloxy)-3-hydroxyphenyl)-2-(3,3-diethylazetidin-1-yl)-5-(2,2,2-trifluoroethyl)oxazole-4-carboxamide] | 1 to 10 µM |
| CCc1oc(N2CC(C)(OC)C2)nc1C(=O)Nc1cc(O)c(OC2CC3C[C@@H]3C2)c(Cl)c1 (stereo partly drawn) [Example 271, N-(4-(cis-bicyclo[3.1.0]hexan-3-yloxy)-3-chloro-5-hydroxyphenyl)-5-ethyl-2-(3-methoxy-3-methylazetidin-1-yl)oxazole-4-carboxamide] | 1 to 10 µM |
| CCC1(CC)CN(c2nc(C(=O)Nc3cc(F)c(O[C@@H]4C[C@@H]5C[C@@H]5C4)c(F)c3)c(C)o2)C1 [Example 273, N-(4-(cis-bicyclo[3.1.0]hexan-3-yloxy)-3,5-difluorophenyl)-2-(3,3-diethylazetidin-1-yl)-5-methyloxazole-4-carboxamide] | 0.01 to 1 µM |
| CCCc1oc(N2CCCC2)nc1C(=O)Nc1cc(F)c(O[C@@H]2C[C@@H]3C[C@@H]3C2)c(F)c1 [Example 274, N-(4-(cis-bicyclo[3.1.0]hexan-3-yloxy)-3,5-difluorophenyl)-5-propyl-2-(pyrrolidin-1-yl)oxazole-4-carboxamide] | 0.01 to 1 µM |
| CCC1(CC)CN(c2nc(C(=O)Nc3cc(C)c(NC4CC5CC(C5)C4)c(F)c3)c(CCF)o2)C1 (centres unmarked) [Example 292, N-(4-(bicyclo[3.1.1]heptan-3-ylamino)-3-fluoro-5-methylphenyl)-2-(3,3-diethylazetidin-1-yl)-5-(2-fluoroethyl)oxazole-4-carboxamide] | 1 to 10 µM |

— patent publication US12098145B2 (Libra Therapeutics, Inc., priority 2022, dated 2024)
